Source: article PMC12615753, “Glutathione as a taste modulator: molecular mechanisms of interaction with umami and sweet taste receptors” (Food Chemistry: Molecular Sciences, 2025)

Molecular target: T1, hTAS1R1 Q278Y/rTAS1R3 (Homo sapiens, UniProt Q7RTX1, Q278Y)
T1 construct: expressed in transfected cells; host or cells: HEK293T/17 (ATCC CRL-11268)
T1 sequence (Q7RTX1 21-841 Q278Y): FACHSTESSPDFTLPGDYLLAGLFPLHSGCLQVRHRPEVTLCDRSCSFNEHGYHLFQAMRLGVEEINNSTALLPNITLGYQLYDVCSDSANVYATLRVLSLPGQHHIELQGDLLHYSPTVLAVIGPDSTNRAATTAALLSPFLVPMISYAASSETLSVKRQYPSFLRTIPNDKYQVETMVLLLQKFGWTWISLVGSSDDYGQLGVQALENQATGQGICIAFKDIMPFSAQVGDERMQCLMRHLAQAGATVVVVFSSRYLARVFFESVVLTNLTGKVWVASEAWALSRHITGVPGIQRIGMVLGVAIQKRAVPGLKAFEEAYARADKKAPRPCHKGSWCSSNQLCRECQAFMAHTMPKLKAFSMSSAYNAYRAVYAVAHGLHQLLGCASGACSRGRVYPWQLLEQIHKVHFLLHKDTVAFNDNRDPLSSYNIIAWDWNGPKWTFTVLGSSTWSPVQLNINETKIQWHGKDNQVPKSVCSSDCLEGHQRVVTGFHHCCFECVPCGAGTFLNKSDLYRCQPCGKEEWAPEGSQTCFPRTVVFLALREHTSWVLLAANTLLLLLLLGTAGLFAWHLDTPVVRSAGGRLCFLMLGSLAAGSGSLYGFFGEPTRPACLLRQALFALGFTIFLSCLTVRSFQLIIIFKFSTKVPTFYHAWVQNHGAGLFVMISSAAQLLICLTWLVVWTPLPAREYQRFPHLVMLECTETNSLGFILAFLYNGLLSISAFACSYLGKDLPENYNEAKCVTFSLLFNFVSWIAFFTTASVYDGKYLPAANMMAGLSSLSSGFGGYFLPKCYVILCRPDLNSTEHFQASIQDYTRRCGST
T1 sequence (Q923K1 21-858 partner): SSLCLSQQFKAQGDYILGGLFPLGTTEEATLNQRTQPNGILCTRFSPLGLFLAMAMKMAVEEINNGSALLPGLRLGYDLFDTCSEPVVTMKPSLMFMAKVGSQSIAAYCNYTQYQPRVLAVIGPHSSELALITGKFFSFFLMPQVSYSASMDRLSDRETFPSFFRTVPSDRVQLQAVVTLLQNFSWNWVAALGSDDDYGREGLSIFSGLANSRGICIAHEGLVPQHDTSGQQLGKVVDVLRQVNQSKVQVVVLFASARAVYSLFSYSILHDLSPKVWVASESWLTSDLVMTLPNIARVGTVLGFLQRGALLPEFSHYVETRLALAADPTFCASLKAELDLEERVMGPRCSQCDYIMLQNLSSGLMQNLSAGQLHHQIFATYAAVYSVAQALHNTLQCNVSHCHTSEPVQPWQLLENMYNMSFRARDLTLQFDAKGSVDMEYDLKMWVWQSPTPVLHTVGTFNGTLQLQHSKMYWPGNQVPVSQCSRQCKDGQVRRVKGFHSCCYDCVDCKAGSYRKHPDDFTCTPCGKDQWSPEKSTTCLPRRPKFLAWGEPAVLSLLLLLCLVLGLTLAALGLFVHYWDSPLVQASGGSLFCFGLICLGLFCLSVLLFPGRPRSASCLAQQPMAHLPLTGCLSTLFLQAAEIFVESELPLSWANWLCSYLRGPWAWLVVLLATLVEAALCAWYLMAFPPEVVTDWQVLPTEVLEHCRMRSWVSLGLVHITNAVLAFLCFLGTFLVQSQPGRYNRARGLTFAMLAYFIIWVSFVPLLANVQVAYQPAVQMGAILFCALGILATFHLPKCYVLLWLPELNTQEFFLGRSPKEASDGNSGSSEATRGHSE
Assay: Calcium assay, hTAS1R1 mutant co-expressed with rTAS1R3
Assay type: cell-based, rat
From the text: Chimeric Gα proteins, such as Gα16Gust44, Gα16Gi3 or Gα15i2, are widely used in the functional expression of TAS1R receptors ([Backes et al., 2015]; [Suess et al., 2015]; [Toda et al., 2021], [Toda et al., 2013], [Toda et al., 2018]; [Zhang et al., 2008]). Chimeric Gα15i2 (([Toda et al., 2013]), Supplementary data) was generated by replacing the last five residues of the C-terminal tail of rat Gα15i2 (EINLL) (UniProt number G3V6N8; https://www.uniprot.org/uniprot/) with the counterpart sequence from human GNAI2 (DCGLF) (UniProt number P04899-1) and cloning into the pcDNA3.1/Hygro vector (Invitrogen, Thermo Fisher Scientific, Illkirch, France) between the HindIII and NotI restriction sites, resulting in the plasmid pcDNA3.1-Gα15i2. Chimeric Gα16Gust44 construct have already been reported ([Raliou et al., 2011]). Briefly, Gα16Gust44 was generated by replacing the C-terminal of Gα16 with the C-terminal 44 residues of gustducin. As previously described, hTAS1R1 was amplified from human fungiform papillae cDNA and cloned and inserted into pcDNA3 (Invitrogen), generating pcDNA3-TAS1R1-WT (wild-type) ([Raliou et al., 2011]). […] The cDNA coding region of rTAS1R3 was synthesized with optimized-codon usage for human expression (Genewiz) and was cloned and inserted into the mammalian pcDNA4/myc-HisA (Invitrogen) expression vector between the EcoRI and NotI restriction sites, resulting in the plasmid pcDNA4-rTAS1R3. […] The sequence integrity of all the plasmid constructs was verified via automated DNA sequencing (Genewiz).
The hTAS1R1 mutants were co-expressed with the rTAS1R3 subunit in HEK293 cells. […] As a control, the functionality of the mutated receptors was checked after stimulation with S807 (Fig. S8), which interacts with TAS1R1-TMD ([Zhang et al., 2008]).

For CCCC(CCC)NC(=O)c1ccc2c(c1)OCO2 [S807, N-(heptan-4-yl)benzo[d][1,3]dioxole-5-carboxamide, reference compound], the “response to the agonist alone, vs WT” value (Q278Y) was “strongly affected”.
N[C@@H](CCC(=O)N[C@@H](CS)C(=O)NCC(=O)O)C(=O)O [GSH, γ-L-glutamyl-L-cysteinyl-glycine] was tested, and the EC50 was 3.96 ± 1.76 mM, the “effect of the added compound (1 mM) on the response to L-Glu” value (Q278Y) was “synergy was observed” and the “Max ∆F/F0” value (Q278Y, GSH) was 0.47 ± 0.07. The “R1 = mutant EC50/WT EC50” value (Q278Y, GSH) was 1.6.
